From patent EP3771715A1, “CRYSTALLINE FORMS OF BARICITINIB” (Zaklady Farmaceutyczne "Polpharma" S.A., priority 2019, dated 2021)

Legend:
Format in all cases: physicochemical
[1] = Crystalline stability against humidity (XRPD); settings: no conversion into another crystalline form by XRPD
Description: Powder X-ray diffraction was performed with a Rigaku MiniFlex 600 diffractometer with Bragg-Brentano geometry CuKa radiation and D/teX Ultra Detector. The powder X-ray diffraction patterns were recorded at a tube voltage of 40kV and a tube current of 15 mA, applying a step size of 0.01° and speed 6.0°/min with the angular range 3-36° at ambient conditions.
A test for crystalline stability against humidity can be performed as follows: The sample is exposed to a relative humidity of 75% (±5%) at 40°C (±2°C) for 4 weeks. The expression "crystalline stability" means that no conversion into another crystalline form occurs, as determined by XRPD.
The equilibrium relative humidity of a sample is measured by determining the relative humidity in % in the air above a test sample, after establishment of a humidity equilibrium in a closed/open system at a constant temperature.
A test for crystalline stability against humidity has been performed as follows: The sample is exposed to a relative humidity of 75% (±5%) at 40°C(±2°C) for 4 weeks. The expression "crystalline stability" means that no conversion into another crystalline form occurs, as determined by XRPD.

[2] = Chemical stability under accelerated ICH storage conditions (HPLC); settings: for Impurities (HPLC % a/a) RRT 1.30 / Impurities (HPLC % a/a) RRT 1.41 / Impurities (HPLC % a/a) RRT 1.40 / Impurities (HPLC % a/a) RRT 1.70 / Impurities (HPLC % a/a) RRT 2.20: 40°C, 75 ± 5% RH
Description: Purity and assay analysis was carried out using High Performance Liquid Chromatograph equipped with PDA detector. The analysis was conducted using Octadecyl silane (ODA or C18) chemically bonded to porous silica column, at a temperature of 40°C. The mobile phases was acetonitrile and 0.1% (v/v) ortho-phosphoric acid in water used in gradient.
Chemical stability study of the new crystalline forms of baricitinib i.e. PPH form I and PPH form II was performed under accelerated ICH storage conditions (40°C, 75±5% relative humidity). Samples were taken periodically (0 (start), after 1, 2, and 4 weeks) and analyzed by HPLC. Table 4 : HPLC purity of PPH form I of baricitinib

[3] = Hygroscopicity (statement, no method described)

CCS(=O)(=O)N1CC(CC#N)(n2cc(-c3ncnc4[nH]ccc34)cn2)C1 [PPH form I, {1-(Ethylsulfonyl)-3-[4-(7H-pyrrolo[2,3-d]pyrimidin-4-yl)-1H-pyrazol-1-yl]-3-azetidinyl}acetonitrile]
Crystalline stability study 40°C, 75 ± 5% RH After 1 week ([1]; after 1 week): Stable | Crystalline stability study 40°C, 75 ± 5% RH After 4 weeks [1]: Stable | Impurities (HPLC % a/a) RRT 1.30 ([2]; week 0): 0.01 % a/a | Impurities (HPLC % a/a) RRT 1.41 ([2]; week 0): 0.03 % a/a | Impurities (HPLC % a/a) RRT 1.30 ([2]; week 1): 0.01 % a/a | Impurities (HPLC % a/a) RRT 1.41 ([2]; week 1): 0.03 % a/a | Impurities (HPLC % a/a) RRT 1.30 ([2]; week 2): 0.01 % a/a | Impurities (HPLC % a/a) RRT 1.41 ([2]; week 2): 0.03 % a/a | Impurities (HPLC % a/a) RRT 1.30 ([2]; week 4): 0.01 % a/a | Impurities (HPLC % a/a) RRT 1.41 ([2]; week 4): 0.03 % a/a | Chemical stability (HPLC results) ([2]; during 0, 1, 2 and 4 weeks at 40°C, 75 ± 5% relative humidity): stable | Hygroscopicity [3]: substantially non-hygroscopic

CCS(=O)(=O)N1CC(CC#N)(n2cc(-c3ncnc4[nH]ccc34)cn2)C1 [PPH form II, {1-(Ethylsulfonyl)-3-[4-(7H-pyrrolo[2,3-d]pyrimidin-4-yl)-1H-pyrazol-1-yl]-3-azetidinyl}acetonitrile]
Crystalline stability study 40°C, 75 ± 5% RH After 4 weeks ([1]; listed as PPH form II (Example 4)): Stable | Crystalline stability study 40°C, 75 ± 5% RH After 4 weeks ([1]; listed as PPH form II of baricitinib): stable | Impurities (HPLC % a/a) RRT 1.40 ([2]; week 0): 0.03 % a/a | Impurities (HPLC % a/a) RRT 1.70 ([2]; week 0): 0.17 % a/a | Impurities (HPLC % a/a) RRT 2.20 ([2]; week 0): 0.15 % a/a | Impurities (HPLC % a/a) RRT 1.40 ([2]; week 1): 0.03 % a/a | Impurities (HPLC % a/a) RRT 1.70 ([2]; week 1): 0.17 % a/a | Impurities (HPLC % a/a) RRT 2.20 ([2]; week 1): 0.15 % a/a | Impurities (HPLC % a/a) RRT 1.40 ([2]; week 2): 0.03 % a/a | Impurities (HPLC % a/a) RRT 1.70 ([2]; week 2): 0.17 % a/a | Impurities (HPLC % a/a) RRT 2.20 ([2]; week 2): 0.15 % a/a | Impurities (HPLC % a/a) RRT 1.40 ([2]; week 4): 0.03 % a/a | Impurities (HPLC % a/a) RRT 1.70 ([2]; week 4): 0.17 % a/a | Impurities (HPLC % a/a) RRT 2.20 ([2]; week 4): 0.15 % a/a
